Results as given in BigSolDB 2.1.

NC(N)=O
solubility (mole fraction)
Conditions | in ethanol | in isobutanol | in isopentanol | in isopropanol | in methanol | in n-butanol | in n-pentanol | in n-propanol | in water
293.15 K | 0.0395 | 0.017 | 0.0146 | 0.0253 | 0.0845 | 0.0163 | 0.0137 | 0.0246 | 0.252
303.15 K | 0.0548 | 0.0242 | 0.0162 | 0.0306 | 0.104 | 0.0209 | 0.0183 | 0.0402 | 0.294
318.15 K | 0.0874 | 0.0302 | 0.026 | 0.0425 | 0.165 | 0.0292 | 0.0241 | 0.0384 | 0.36
333.15 K | 0.127 | 0.0469 | 0.0368 | 0.058 | 0.225 | 0.0412 | 0.0354 | 0.0722 | 0.41
343.15 K | 0.155 | 0.0529 | 0.0451 | 0.0669 | 0.266 | 0.0504 | 0.0424 | 0.0704 | 0.465
